Data: patent US20090326013A1, “ISOMERS OF INOSITOL NIACINATE AND USES THEREOF” (priority 2007, published 2009)
Values belong to the compound of their own block, whether it stands above or below them.

Assays:
[1] = 250 mg 3 times daily combined with Mg-chlorophenoxyisobutyrate; cited from earlier work
Esterase = test: Hydrolysis in pH 7.4 phosphate buffer (SIF) with esterase; format: in vitro ADME; conditions: for degradation intermediates (penta-, tetra-, tri-, di-niacinates) observed: 16 hours
Procedure: Esterase is an enzyme found in animal liver which catalyzes the hydrolysis of esters. The esterase reaches maximum activity in pH 8.0 borate buffer at 25° C. Simulated intestinal fluid without pancreatin (SIF, 1 L) was prepared according to USP standard procedure (USP29-NF24 S2). The pH of the SIF solution was then adjusted to 7.4. Esterase (6.0 mg) was then added to 200 mL of the pH 7.4 phosphate buffer. […] After sonication for about 1 minute these suspensions were carefully transferred to the hydrolysis medium. As each suspension was added to the pH 7.4 phosphate buffer, a milky white precipitated immediately appeared. The reactors were kept in a thermostatic water bath at 37±1° C. with a shaking rate at 42±1 rpm. At various reaction times ˜2 mL aliquots were taken from the hydrolysis solutions and filtered through 0.45 μm filters in order to remove any undissolved materials. The samples for HPLC analysis were prepared by addition of 20 μL 6N HCl to 1 mL filtrate.

[2] = Dissolution and hydrolysis in simulated gastric fluid (SGF) pH 1.1, release of niacin; format: physicochemical; conditions: for release of niacin in SGF, allo-IHN compared with myo-IHN (FIG. 8): SGF pH 1.1, up to 150 hours; for time to complete dissolution in SGF: 25 mg in 25 mL SGF pH 1.1, 37°C, shaking
Procedure: The hydrolysis was performed in a 37±1° C. thermostatic water bath with a shaking rate at 97±2 rpm. At various time intervals, 100 μl aliquots were taken from the reaction mixture and diluted with 1.5 mL 80/20 acetonitrile/formic acid which were used to quench the hydrolysis reaction.
The pH of the SGF solution was 1.1 at 22° C. […] The reactor was placed in a thermostatic water bath at 37±1° C. with a shaking rate at 42±1 rpm. At various reaction times, 1 mL aliquots were taken from the reaction mixture and analyzed for niacin by HPLC.

[3] = Dissolution and hydrolysis in pH 7.4 phosphate buffer (SIF without pancreatin); format: physicochemical; conditions: at about 25 hours
Procedure: A pH 7.4 phosphate buffer solution was also prepared from a SIF test solution in the absence of pancreatin. […] The release of niacin and the appearance of the degradation intermediates were monitored up to about 74 hours.

[4] = Dissolution and hydrolysis in SIF with pancreatin at pH 6.7; format: in vitro ADME; conditions: pH 6.7, up to 40 hours
Procedure: Simulated intestinal fluid (SIF) with pancreatin was prepared according to the USP standard procedure (USP29-NF24 S2) with a pH of 6.7 at 24° C.

[5] = tested on: women suffering from painful menstrual cramps; conditions: 100 mg niacin twice daily, then every 2-3 hours during heavy cramps; cited from earlier work
alcoholics = conditions: three or more grams of niacin daily, five year study; cited from earlier work
[6] = pH 7.4 phosphate buffer with esterase

SMILES: O=C(O[C@H]1[C@H](OC(=O)c2cccnc2)[C@@H](OC(=O)c2cccnc2)[C@H](OC(=O)c2cccnc2)[C@@H](OC(=O)c2cccnc2)[C@H]1OC(=O)c1cccnc1)c1cccnc1 [IHN, inositol hexaniacinate]
- influence on glucose tolerance [1]: no influence on glucose tolerance

SMILES: O=C(O)c1cccnc1 [niacin, pyridine-3-carboxylic acid]
- participants experiencing significant relief of menstrual cramps [5]: Ninety
- alcoholics who benefit from supplementation (reduced recidivism and symptom reduction) (alcoholics): 30-60%

Second part, led by results:

- concentration of niacin released (Esterase; 20 mg in 200 mL pH 7.4 phosphate buffer with esterase, 25 hours): 52.8 µg/mL
- dissolution rate in the hydrolysis medium (Esterase; [6]): relatively fast
- niacin released, % of theoretical release (Esterase; pH 7.4 phosphate buffer with esterase, 25 hours): ~58%
- area response of the niacin peak compared with the myo-IHN sample (Esterase; pH 7.4 phosphate buffer with esterase, within one hour): significantly larger
- effect of the presence of esterase on release of niacin (Esterase; pH 7.4 phosphate buffer with vs without esterase): further enhances the release of niacin
- niacin released in SGF ([2]; 20 mg in 200 mL SGF pH 1.1, 37°C, 118 hours): 38.5 µg/mL
- niacin released in SGF, % of theoretical niacin content ([2]; SGF pH 1.1, 118 hours, theoretical 91 μg/mL): ~42%
- release of niacin in SGF, allo-IHN compared with myo-IHN (FIG. 8) [2]: about the same
- maximum concentration of niacin released ([3]; 20 mg in 200 mL pH 7.4 phosphate buffer): 30.34 µg/mL
- maximum niacin released, % of theoretical release ([3]; pH 7.4 phosphate buffer): ~33%
SMILES: O=C(O[C@H]1[C@H](OC(=O)c2cccnc2)[C@H](OC(=O)c2cccnc2)[C@@H](OC(=O)c2cccnc2)[C@@H](OC(=O)c2cccnc2)[C@H]1OC(=O)c1cccnc1)c1cccnc1 [allo-IHN, allo-inositol hexaniacinate]
- degradation intermediates (penta-, tetra-, tri-, di-niacinates) observed (Esterase; [6]): only the degradation intermediates of allo-IHN
- onset of dissolution and hydrolysis in SGF ([2]; 20 mg in 200 ml SGF pH 1.1, 37°C): began immediately after addition to the reaction medium

- degradation intermediates (penta-, tetra-, tri-, di-niacinates) observed (Esterase; [6]): absence of degradation intermediates
- time to complete dissolution in SGF [2]: 6 h
- release of niacin in SGF, allo-IHN compared with myo-IHN (FIG. 8) [2]: about the same
- release of niacin in SIF with pancreatin [4]: very little release of niacin
SMILES: O=C(O[C@H]1[C@H](OC(=O)c2cccnc2)[C@@H](OC(=O)c2cccnc2)[C@H](OC(=O)c2cccnc2)[C@@H](OC(=O)c2cccnc2)[C@H]1OC(=O)c1cccnc1)c1cccnc1 [myo-IHN, myo-inositol hexaniacinate, reference compound]
- dissolution rate in the hydrolysis medium (Esterase; [6]): considerably slower than the hydrolysis rate
- extent of hydrolysis (FIG. 9) (Esterase; [6]): remained as a solid and did not hydrolyze

- time to complete dissolution in SGF [2]: > 53 h
SMILES: O=C(O[C@H]1[C@H](OC(=O)c2cccnc2)[C@@H](OC(=O)c2cccnc2)[C@H](OC(=O)c2cccnc2)[C@@H](OC(=O)c2cccnc2)[C@@H]1OC(=O)c1cccnc1)c1cccnc1 [scyllo-IHN, Scyllo-inositol hexaniacinate]
- dissolution and hydrolysis after increasing acidity of the SGF medium ([2]; 2 ml concentrated HCl injected after 53 hours): can be dissolved and the hydrolysis reaction commences to produce niacin
